ChEMBL document CHEMBL5241131, “2-Anilino-4-(1-methyl-1H-pyrazol-4-yl)pyrimidine-derived CDK2 inhibitors as anticancer agents: Design, synthesis & evaluation” (Bioorg Med Chem, 2023)
Activity calls are given as the source filed them. No cut-off for these calls is given here.

Tests used:
[1] = target: Cyclin-dependent kinase 1/cyclin B (Homo sapiens) (UniProt P06493+P14635+Q8WWL7+O95067); test: Inhibition of CDK1/Cyclin B (unknown origin) at 1 uM incubated for 30 to 60 mins presence of dithiothreitol by Cheng-Prusoff equation analysis relative to control; format: protein-complex assay; conditions: time 30-60 min
[2] = target: Cyclin-dependent kinase 2/cyclin E (Homo sapiens) (UniProt P24864+P24941+O96020); test: Inhibition of CDK2/cyclin E (unknown origin) at 1 uM incubated for 30 to 60 mins presence of dithiothreitol by Cheng-Prusoff equation analysis relative to control; format: protein-complex assay; conditions: time 30-60 min
[3] = target: Cyclin-dependent kinase 5/CDK5 activator 1 (Homo sapiens) (UniProt Q00535+Q15078); test: Inhibition of CDK5/p25 (unknown origin) at 1 uM incubated for 30 to 60 mins presence of dithiothreitol by Cheng-Prusoff equation analysis relative to control; format: protein-complex assay; conditions: time 30-60 min
[4] = target: CDK9/cyclin T1 (Homo sapiens) (UniProt O60563+P50750); test: Inhibition of CDK9/cyclin T1 (unknown origin) at 1 uM incubated for 30 to 60 mins presence of dithiothreitol by Cheng-Prusoff equation analysis relative to control; format: protein-complex assay; conditions: time 30-60 min
A2780 [5] = test: Antiproliferative activity against human A2780 cells assessed as inhibition of cell growth incubated for 72 hrs by MTT assay; format: functional
[6] = target: T1, Cyclin-dependent kinase 2/cyclin E (Homo sapiens, UniProt P24941); test: Inhibition of CDK2/cyclin E (unknown origin) assessed as inhibition constant incubated for 30 to 60 mins presence of dithiothreitol by Cheng-Prusoff equation analysis; format: protein-complex assay
CDK9/cyclin T1 = CDK9/cyclin T1 (Homo sapiens, UniProt P50750); test: Inhibition of CDK9/cyclin T1 (unknown origin) assessed as inhibition constant incubated for 30 to 60 mins presence of dithiothreitol by Cheng-Prusoff equation analysis; format: protein-complex assay
A2780 [7] = test: Antiproliferative activity against human A2780 cells assessed as inhibition of cell growth at 1 uM incubated for 72 hrs by MTT assay; format: functional; parameters: scale not given: the % may be the effect or the level left
[8] = target: T2, Cyclin-dependent kinase 1/cyclin B (Homo sapiens, UniProt P06493); test: Inhibition of CDK1/Cyclin B (unknown origin) assessed as inhibition constant incubated for 30 to 60 mins presence of dithiothreitol by Cheng-Prusoff equation analysis; format: protein-complex assay
[9] = target: Cyclin-dependent kinase 5/CDK5 activator 1 (Homo sapiens, UniProt Q00535); test: Inhibition of CDK5/p25 (unknown origin) assessed as inhibition constant incubated for 30 to 60 mins presence of dithiothreitol by Cheng-Prusoff equation analysis; format: protein-complex assay
OVCAR-5 = test: Antiproliferative activity against human OVCAR-5 cells assessed as inhibition of cell growth incubated for 72 hrs by MTT assay; format: functional
U-937 = test: Antiproliferative activity against human U-937 cells assessed as inhibition of cell growth incubated for 72 hrs by MTT assay; format: functional
MV4-11 = test: Antiproliferative activity against human MV4-11 cells assessed as inhibition of cell growth incubated for 72 hrs by MTT assay; format: functional
MDA-MB-231 = test: Antiproliferative activity against human MDA-MB-231 cells assessed as inhibition of cell growth incubated for 72 hrs by MTT assay; format: functional
NCI-H460 = test: Antiproliferative activity against human NCI-H460 cells assessed as inhibition of cell growth incubated for 72 hrs by MTT assay; format: functional
NCI-H82 = test: Antiproliferative activity against human NCI-H82 cells assessed as inhibition of cell growth incubated for 72 hrs by MTT assay; format: functional
U-251 = test: Antiproliferative activity against human U-251 cells assessed as inhibition of cell growth incubated for 72 hrs by MTT assay; format: functional
HCT-116 [10] = test: Antiproliferative activity against human HCT-116 cells assessed as inhibition of cell growth incubated for 72 hrs by MTT assay; format: functional
HT-29 = test: Antiproliferative activity against human HT-29 cells assessed as inhibition of cell growth incubated for 72 hrs by MTT assay; format: functional
KM12 = test: Antiproliferative activity against human KM12 cells assessed as inhibition of cell growth incubated for 72 hrs by MTT assay; format: functional
COLO 205 = test: Antiproliferative activity against human COLO 205 cells assessed as inhibition of cell growth incubated for 72 hrs by MTT assay; format: functional
ES-2 = test: Antiproliferative activity against human ES2 cells assessed as inhibition of cell growth incubated for 72 hrs by MTT assay; format: functional
OAW-28 = test: Antiproliferative activity against human OAW-28 cells assessed as inhibition of cell growth incubated for 72 hrs by MTT assay; format: functional
OV-90 = test: Antiproliferative activity against human OV-90 cells assessed as inhibition of cell growth incubated for 72 hrs by MTT assay; format: functional
[11] = Antiproliferative activity against human COV318 cells assessed as inhibition of cell growth incubated for 72 hrs by MTT assay; format: functional
[12] = Antiproliferative activity against human COV504 cells assessed as inhibition of cell growth incubated for 72 hrs by MTT assay; format: functional
HCT-116 [13] = test: Induction of cell cycle arrest in human HCT-116 cells assessed as accumulation of cells at sub G1 phase at 1 uM incubated for 24 hrs by propidium iodide staining based flow cytometry (reference value: 0.24%); format: functional
HCT-116 [14] = test: Induction of cell cycle arrest in human HCT-116 cells assessed as accumulation of cells at G1 phase at 1 uM incubated for 24 hrs by propidium iodide staining based flow cytometry (reference value: 51.33%); format: functional
HCT-116 [15] = test: Induction of cell cycle arrest in human HCT-116 cells assessed as accumulation of cells at S phase at 1 uM incubated for 24 hrs by propidium iodide staining based flow cytometry (reference value: 18.01%); format: functional
HCT-116 [16] = test: Induction of cell cycle arrest in human HCT-116 cells assessed as accumulation of cells at G2/M phase at 1 uM incubated for 24 hrs by propidium iodide staining based flow cytometry (reference value: 28.37%); format: functional
HCT-116 [17] = test: Induction of apoptosis in human HCT-116 cells assessed as viable cells at 1 uM incubated for 72 hrs by AnnexinV-FITC/propidium iodide staining based flow cytometry (reference value: 93.43%); format: functional; conditions: read-out: Activity
HCT-116 [18] = test: Induction of apoptosis in human HCT-116 cells assessed as early apoptotic cells at 1 uM incubated for 72 hrs by AnnexinV-FITC/propidium iodide staining based flow cytometry (reference value: 2.95%); format: functional
HCT-116 [19] = test: Induction of apoptosis in human HCT-116 cells assessed as late apoptotic cells at 1 uM incubated for 72 hrs by AnnexinV-FITC/propidium iodide staining based flow cytometry (reference value: 2.91%); format: functional
HCT-116 [20] = test: Induction of apoptosis in human HCT-116 cells assessed as necrotic cells at 1 uM incubated for 72 hrs by AnnexinV-FITC/propidium iodide staining based flow cytometry (Rvb =0.71%); format: functional
HCT-116 [21] = test: Induction of apoptosis in human HCT-116 cells assessed as increase in cleaved PARP level at 1 uM incubated for 24 hrs by Western blot analysis; format: functional, cell-based
[22] = target: T1, Cyclin-dependent kinase 2/cyclin E; test: Inhibition of CDK2/cyclin E (unknown origin) assessed as inhibition constant; format: protein-complex assay
[23] = target: T2, Cyclin-dependent kinase 1/cyclin B; test: Inhibition of CDK1/Cyclin B (unknown origin) assessed as inhibition constant; format: protein-complex assay

CDK9/cyclin T1, sequence (O60563 whole entry): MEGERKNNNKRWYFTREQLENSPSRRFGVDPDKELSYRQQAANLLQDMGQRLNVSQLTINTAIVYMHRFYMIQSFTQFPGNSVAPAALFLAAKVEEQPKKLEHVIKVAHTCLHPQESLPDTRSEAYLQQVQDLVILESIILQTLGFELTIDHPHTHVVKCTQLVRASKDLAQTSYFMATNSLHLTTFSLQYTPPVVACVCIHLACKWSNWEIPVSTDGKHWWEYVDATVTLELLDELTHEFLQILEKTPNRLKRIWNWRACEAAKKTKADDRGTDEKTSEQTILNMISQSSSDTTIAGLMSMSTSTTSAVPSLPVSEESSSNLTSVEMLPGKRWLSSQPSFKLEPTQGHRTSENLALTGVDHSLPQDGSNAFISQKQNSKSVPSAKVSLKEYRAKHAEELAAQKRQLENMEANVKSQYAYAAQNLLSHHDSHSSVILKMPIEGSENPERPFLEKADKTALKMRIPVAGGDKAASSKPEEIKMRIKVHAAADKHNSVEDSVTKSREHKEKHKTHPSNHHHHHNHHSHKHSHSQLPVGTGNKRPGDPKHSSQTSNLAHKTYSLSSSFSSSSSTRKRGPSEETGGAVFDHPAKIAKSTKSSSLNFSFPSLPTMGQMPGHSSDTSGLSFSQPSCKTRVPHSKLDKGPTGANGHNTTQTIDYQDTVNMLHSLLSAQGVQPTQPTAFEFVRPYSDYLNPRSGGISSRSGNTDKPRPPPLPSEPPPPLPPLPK
CDK9/cyclin T1, sequence (P50750 whole entry): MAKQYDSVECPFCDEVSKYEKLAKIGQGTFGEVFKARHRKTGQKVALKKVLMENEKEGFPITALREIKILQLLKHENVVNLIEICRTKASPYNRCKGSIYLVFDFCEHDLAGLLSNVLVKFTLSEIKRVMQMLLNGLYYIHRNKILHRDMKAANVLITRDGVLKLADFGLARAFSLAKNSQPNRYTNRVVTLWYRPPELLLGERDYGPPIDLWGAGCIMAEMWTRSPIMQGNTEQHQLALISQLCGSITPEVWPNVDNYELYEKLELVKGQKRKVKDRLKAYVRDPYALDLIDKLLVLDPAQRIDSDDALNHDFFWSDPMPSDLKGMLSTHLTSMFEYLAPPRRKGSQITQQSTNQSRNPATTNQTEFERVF
Cyclin-dependent kinase 5/CDK5 activator 1, sequence (Q00535 whole entry): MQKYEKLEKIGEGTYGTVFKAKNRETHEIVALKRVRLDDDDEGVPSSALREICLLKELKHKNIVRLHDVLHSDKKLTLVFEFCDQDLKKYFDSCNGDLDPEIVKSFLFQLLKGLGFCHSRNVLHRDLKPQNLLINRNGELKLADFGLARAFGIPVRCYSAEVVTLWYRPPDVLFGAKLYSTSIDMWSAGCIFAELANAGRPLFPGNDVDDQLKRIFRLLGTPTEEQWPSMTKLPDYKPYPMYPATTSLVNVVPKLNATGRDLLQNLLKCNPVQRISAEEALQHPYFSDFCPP
Cyclin-dependent kinase 5/CDK5 activator 1, sequence (Q15078 whole entry, further chain): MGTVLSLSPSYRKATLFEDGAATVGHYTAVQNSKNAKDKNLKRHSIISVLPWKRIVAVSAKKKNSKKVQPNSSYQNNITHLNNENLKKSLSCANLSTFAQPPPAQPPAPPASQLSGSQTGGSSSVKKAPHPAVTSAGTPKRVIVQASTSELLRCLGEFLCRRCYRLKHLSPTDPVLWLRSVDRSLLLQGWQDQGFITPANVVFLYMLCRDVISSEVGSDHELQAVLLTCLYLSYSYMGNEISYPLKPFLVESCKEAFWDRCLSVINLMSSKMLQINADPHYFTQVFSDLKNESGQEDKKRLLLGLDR
Cyclin-dependent kinase 5/CDK5 activator 1 (Homo sapiens), sequence (Q00535 whole entry): as the sequence (Q00535 whole entry) above
Cyclin-dependent kinase 5/CDK5 activator 1 (Homo sapiens), sequence (Q15078 99-307 partner limits assumed): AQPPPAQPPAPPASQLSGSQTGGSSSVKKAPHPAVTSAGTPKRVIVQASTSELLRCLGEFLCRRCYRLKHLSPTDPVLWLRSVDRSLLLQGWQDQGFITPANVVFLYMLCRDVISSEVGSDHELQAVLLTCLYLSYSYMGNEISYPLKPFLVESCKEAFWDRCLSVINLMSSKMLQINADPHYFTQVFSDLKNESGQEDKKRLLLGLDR

## Cn1cc(-c2nc(Nc3cccc(S(=O)(=O)C(F)(F)F)c3)ncc2F)cn1
[1]
  inhibition: 42%
[2]
  inhibition: 1%
[3]
  inhibition: 46%
[4]
  inhibition: 20%
A2780 [5]
  GI50: 215 nM

## Cn1cc(-c2nc(Nc3cccc([N+](=O)[O-])c3)ncc2F)cn1
[1]
  inhibition: 54%
[6]
  Ki: 87 nM
[3]
  inhibition: 67%
CDK9/cyclin T1
  Ki: 147 nM
A2780 [5]
  GI50: 113 nM

## Cn1cc(-c2nc(Nc3ccc(F)c(C(F)(F)F)c3)ncc2F)cn1
[1]
  inhibition: 22%
[2]
  inhibition: 1%
[3]
  inhibition: 16%
[4]
  inhibition: 51%
A2780 [7]
  Activity: 28%

## Cc1nn(C)cc1-c1nc(NC2CCN(S(C)(=O)=O)CC2)ncc1Cl
[8]
  Ki: 12 nM
[6]
  Ki: 16 nM
[9]
  Ki: 2 nM
[4]
  inhibition: 27%
A2780 [7]
  Activity: 20%

## Cn1cc(-c2nc(Nc3ccc(S(N)(=O)=O)cc3)ncc2F)cn1
[8]
  Ki: 6 nM
[6]
  Ki: 21 nM
[9]
  Ki: 19 nM
CDK9/cyclin T1
  Ki: 271 nM
A2780 [5]
  GI50: 232 nM

## Cn1cc(-c2nc(Nc3ccc(S(=O)(=O)C(F)(F)F)cc3)ncc2F)cn1
[1]
  inhibition: 54%
[6]
  Ki: 70 nM
[2]
  inhibition: 15%
[3]
  inhibition: 46%
[4]
  inhibition: 6%
A2780 [7]
  Activity: 54%

## Cn1cc(-c2nc(NC3CCN(S(C)(=O)=O)CC3)ncc2F)cn1
[8]
  Ki: 99 nM
[6]
  Ki: 18 nM
[9]
  Ki: 36 nM
[4]
  inhibition: 55%
A2780 [7]
  Activity: 17%

## Cn1cc(-c2nc(Nc3cccc(S(N)(=O)=O)c3)ncc2F)cn1
OVCAR-5
  GI50: 80 nM
[8]
  Ki: 5 nM
[6]
  Ki: 23 nM
[9]
  Ki: 77 nM
CDK9/cyclin T1
  Ki: 26 nM
A2780 [5]
  GI50: 18 nM
U-937
  GI50: 25 nM
MV4-11
  GI50: 32 nM
MDA-MB-231
  GI50: 129 nM
NCI-H460
  GI50: 162 nM
NCI-H82
  GI50: 119 nM
U-251
  GI50: 154 nM
HCT-116 [10]
  GI50: 65 nM
HT-29
  GI50: 81 nM
KM12
  GI50: 90 nM
COLO 205
  GI50: 64 nM
ES-2
  GI50: 109 nM
OAW-28
  GI50: 149 nM
OV-90
  GI50: 83 nM
[11]
  GI50: 79 nM
[12]
  GI50: 106 nM

## Cn1cc(-c2nc(NC3CCN(S(C)(=O)=O)CC3)ncc2Cl)cn1
[8]
  Ki: 26 nM
[6]
  Ki: 8 nM
[9]
  Ki: 9 nM
[4]
  inhibition: 39%
A2780 [7]
  Activity: 45%

## Nc1cc(-c2cnn(Cc3ccccc3)c2)nc(Nc2cccc(S(N)(=O)=O)c2)n1
[1]
  inhibition: 6%
[2]
  inhibition: 53%
[3]
  inhibition: 40%
[4]
  inhibition: 40%
A2780 [7]
  Activity: 0%

## CNc1nc(C)c(-c2nc(Nc3cccc(S(N)(=O)=O)c3)ncc2F)s1 [ASNUCICLIB]
HCT-116 [13]
  Activity: 1.21%
HCT-116 [14]
  Activity: 28.88%
HCT-116 [15]
  Activity: 16.81%
HCT-116 [16]
  Activity: 53.11%
HCT-116 [17]
  viability at 1 µM: 77%
HCT-116 [18]
  Activity: 15.19%
HCT-116 [19]
  Activity: 6.85%
HCT-116 [20]
  Activity: 0.95%
HCT-116 [21]
  Activity: Active

## Cn1cc(-c2cc(N)nc(Nc3cccc(S(N)(=O)=O)c3)n2)cn1
[1]
  inhibition: 4%
[2]
  inhibition: 13%
[3]
  inhibition: 41%
[4]
  inhibition: 57%
A2780 [7]
  Activity: 0%

## Cn1nccc1-c1nc(Nc2cccc(S(N)(=O)=O)c2)ncc1F
[1]
  inhibition: 65%
[6]
  Ki: 171 nM
[3]
  inhibition: 48%
[4]
  inhibition: 59%
A2780 [7]
  Activity: 0%

## Cn1cc(-c2nc(Nc3ccc(S(C)(=O)=O)cc3)ncc2Cl)cn1
[8]
  Ki: 6 nM
[6]
  Ki: 7 nM
[9]
  Ki: 36 nM
CDK9/cyclin T1
  Ki: 229 nM
A2780 [7]
  Activity: 63%

## Cn1cc(-c2nc(Nc3cccc(S(N)(=O)=O)c3)ncc2Cl)cn1
[8]
  Ki: 5 nM
[6]
  Ki: 176 nM
[9]
  Ki: 92 nM
CDK9/cyclin T1
  Ki: 301 nM
A2780 [5]
  GI50: 80 nM

## Cn1cc(-c2nc(Nc3cccc([N+](=O)[O-])c3)ncc2Cl)cn1
[1]
  inhibition: 24%
[2]
  inhibition: 48%
[3]
  inhibition: 56%
[4]
  inhibition: 73%
A2780 [5]
  GI50: 7 nM

## Cn1cc(-c2nc(Nc3cccc(S(=O)(=O)C(F)(F)F)c3)ncc2Cl)cn1
[1]
  inhibition: 2%
[2]
  inhibition: 53%
[3]
  inhibition: 58%
[4]
  inhibition: 45%
A2780 [5]
  GI50: 125 nM
A2780 [7]
  Activity: 63%

## Cn1cc(-c2nc(Nc3ccc(C(F)(F)F)c(Cl)c3)ncc2F)cn1
[1]
  inhibition: 8%
[2]
  inhibition: 10%
[3]
  inhibition: 3%
[4]
  inhibition: 39%
A2780 [7]
  Activity: 32%

## Cn1cc(-c2nc(Nc3ccc(S(C)(=O)=O)cc3)ncc2F)cn1
[8]
  Ki: 146 nM
[9]
  Ki: 42 nM
[4]
  inhibition: 33%
A2780 [7]
  Activity: 5%

## Cn1cc(-c2nc(Nc3cccc(Cl)c3)ncc2F)cn1
[1]
  inhibition: 50%
[2]
  inhibition: 57%
[3]
  inhibition: 46%
[4]
  inhibition: 69%
A2780 [7]
  Activity: 12%

## CC[C@@H](Nc1nc(NCc2cnc(C)cc2C)c2ncn(C(C)C)c2n1)[C@H](C)O
[22]
  Ki: 5 nM
[23]
  Ki: 578 nM
